Measured values as given in patent publication US9585877B2, “Methods of maintaining, treating or improving cognitive function” (Forum Pharmaceuticals, Inc., priority 2012, dated 2017).

Key:
Format in all cases: in vivo, human
[1] = system: subjects with mild-to-moderate Alzheimer's disease; experiment: Clinical study, ADAS-Cog-13
Procedure: (§1) A double-blind study of 3 doses of the Test Composition or placebo in subjects with mild-to-moderate Alzheimer's disease, with or without receiving a concomitant AChEI for 24 weeks (168 days) after a 7 day placebo run-in period.
Total number of subjects in the safety population was 409 subjects that were dosed once-daily with a dosing-capsule for a period of 168 days. The subjects dosed, and the particular dosing, included: 104 subjects dosed with Placebo capsule; and 305 subjects dosed with Test Compound (104 subjects with 0.3 mg capsules; 101 subjects with 1 mg capsules; and 100 subjects with 2 mg capsules).
The population included generally healthy male or female subjects, aged 50 to ≦85 years, with mild-to-moderate Alzheimer's disease, consistent with criteria defined by a Work Group of the National Institute of Neurological and Communicative Disorders and Stroke—Alzheimer's Disease and Related Disorders Association, of mild to moderate severity, with a Mini-Mental State Examination score (MMSE) 14 and ≦24, and a Clinical Dementia Rating Scale Sum of the Boxes (CDR-SB) score of 2. […] Subjects were required to be either receiving a stable dose of an AChEI (donepezil or rivastigmine) for at least 3 months before screening or not presently being treated with an AChEI or mementine for at least 30 days.
(§2) Subjects with mild to moderate Alzheimer's disease receiving stable treatment with an AChEI (donepezil or rivastigmine: ‘add-on’ subjects) or not receiving an AChEI (de novo subjects′) received 0.3, 1, or 2 mg doses of Test Composition or placebo for up to 24 weeks (168 days) of double-blind treatment, after a 7-day single-blind, placebo run-in period to assess study drug compliance. A follow-up telephone contact was conducted approximately 15 days after the last dose of study drug for questions regarding safety.
Cognitive Part of the Alzheimer's Disease Assessment Scale (ADAS-Cog-13)
The ADAS-Cog-13 is identical to the ADAS-Cog-11 assessment group (see above), with the addition of test items: Delayed Word Recall, and Digit (Number) Cancellation.
The ADAS-cog-13 total score ranges from 0 to 85 (higher scores indicate more severe impairment). A decrease from baseline indicates improvement.

[2] = system: subjects with mild-to-moderate Alzheimer's disease; experiment: Clinical study, Memory composite score
Procedure: as §1, §2
(§3) These analyses were prespecified in the analytical plan (ITT population), and included the following: Cognition composite score (ADAS-cog Word Recall, Word Recognition, & Orientation, and COWAT and CFT), Memory composite score (ADAS-cog Word Recall, Word Recognition, and Orientation), and Executive Function composite score (COWAT and CFT).
(§4) Composite Scores—Three composite scores were calculated: (1) Composite Cognition Score (ADAS-cog Word Recall, Word Recognition, and Orientation, COWAT and CFT); (2) Memory Composite Score (ADAS-cog Word Recall, Word Recognition, and Orientation); and (3) Executive Function Composite Score (COWAT and CFT).
(§5) The composite score is only computed when all test scores are available.

[3] = system: subjects with mild-to-moderate Alzheimer's disease; experiment: Clinical study, Executive Function composite score; conditions: for Executive function composite score Effect Size: over a 23 week period
Procedure: as §1, §2, §3, §4, §5

In the case of `Cl.O.O=C(N[C@H]1CN2CCC1CC2)c1cc2cccc(Cl)c2s1` [Test Compound, (R)-7-chloro-N-(quinuclidin-3-yl)benzo[b]thiophene-2-carboxamide, hydrochloride, monohydrate], the “ADAS-Cog-13 (Baseline was assigned the value of zero @ Week 0)” value ([1]; 0.3 mg daily dose, Week 4) is reported as −0.615, the “ADAS-Cog-13 (Baseline was assigned the value of zero @ Week 0)” value ([1]; 0.3 mg daily dose, Week 12) is reported as −0.5876 and the “ADAS-Cog-13 (Baseline was assigned the value of zero @ Week 0)” value ([1]; 0.3 mg daily dose, Week 18) is reported as −0.3132. The “ADAS-Cog-13 (Baseline was assigned the value of zero @ Week 0)” value ([1]; 0.3 mg daily dose, Week 23) was 0.0915, the “ADAS-Cog-13 (Baseline was assigned the value of zero @ Week 0)” value ([1]; 1 mg daily dose, Week 4) was −0.8012 and the “ADAS-Cog-13 (Baseline was assigned the value of zero @ Week 0)” value ([1]; 1 mg daily dose, Week 12) was −1.2029. The “ADAS-Cog-13 (Baseline was assigned the value of zero @ Week 0)” value ([1]; 1 mg daily dose, Week 18) was −0.3222, the “ADAS-Cog-13 (Baseline was assigned the value of zero @ Week 0)” value ([1]; 1 mg daily dose, Week 23) was −0.0565 and the “ADAS-Cog-13 (Baseline was assigned the value of zero @ Week 0)” value ([1]; 2 mg daily dose, Week 4) was −0.0185. The “ADAS-Cog-13 (Baseline was assigned the value of zero @ Week 0)” value ([1]; 2 mg daily dose, Week 12) was −1.4328, the “ADAS-Cog-13 (Baseline was assigned the value of zero @ Week 0)” value ([1]; 2 mg daily dose, Week 18) was −1.6593 and the “ADAS-Cog-13 (Baseline was assigned the value of zero @ Week 0)” value ([1]; 2 mg daily dose, Week 23) was −1.6899. For the same compound, the “ADAS-Cog 13 Effect Size” value ([1]; 2 mg dose versus Placebo) was 0.39, the “ADAS-Cog-13 (Baseline was assigned the value of zero @ Week 0)” value ([1]; Add-On patients (stable donepezil or rivastigmine), 0.3 mg daily dose, Week 4) was −0.9985 and the “ADAS-Cog-13 (Baseline was assigned the value of zero @ Week 0)” value ([1]; Add-On patients (stable donepezil or rivastigmine), 0.3 mg daily dose, Week 12) was −0.2474. For the same compound, the “ADAS-Cog-13 (Baseline was assigned the value of zero @ Week 0)” value ([1]; Add-On patients (stable donepezil or rivastigmine), 0.3 mg daily dose, Week 18) was −0.4557, the “ADAS-Cog-13 (Baseline was assigned the value of zero @ Week 0)” value ([1]; Add-On patients (stable donepezil or rivastigmine), 0.3 mg daily dose, Week 23) was 0.2752 and the “ADAS-Cog-13 (Baseline was assigned the value of zero @ Week 0)” value ([1]; Add-On patients (stable donepezil or rivastigmine), 1 mg daily dose, Week 4) was −1.0728. The “ADAS-Cog-13 (Baseline was assigned the value of zero @ Week 0)” value ([1]; Add-On patients (stable donepezil or rivastigmine), 1 mg daily dose, Week 12) was −0.0705, the “ADAS-Cog-13 (Baseline was assigned the value of zero @ Week 0)” value ([1]; Add-On patients (stable donepezil or rivastigmine), 1 mg daily dose, Week 18) was 0.6239 and the “ADAS-Cog-13 (Baseline was assigned the value of zero @ Week 0)” value ([1]; Add-On patients (stable donepezil or rivastigmine), 1 mg daily dose, Week 23) was 1.4205. The “ADAS-Cog-13 (Baseline was assigned the value of zero @ Week 0)” value ([1]; Add-On patients (stable donepezil or rivastigmine), 2 mg daily dose, Week 4) was −0.455, the “ADAS-Cog-13 (Baseline was assigned the value of zero @ Week 0)” value ([1]; Add-On patients (stable donepezil or rivastigmine), 2 mg daily dose, Week 12) was −0.9708 and the “ADAS-Cog-13 (Baseline was assigned the value of zero @ Week 0)” value ([1]; Add-On patients (stable donepezil or rivastigmine), 2 mg daily dose, Week 18) was −1.8659. For the same compound, the “ADAS-Cog-13 (Baseline was assigned the value of zero @ Week 0)” value ([1]; Add-On patients (stable donepezil or rivastigmine), 2 mg daily dose, Week 23) was −1.1679, the “ADAS-Cog-13 (Baseline was assigned the value of zero @ Week 0)” value ([1]; de novo patients, 0.3 mg daily dose, Week 4) was −0.545 and the “ADAS-Cog-13 (Baseline was assigned the value of zero @ Week 0)” value ([1]; de novo patients, 0.3 mg daily dose, Week 12) was −1.0759. The “ADAS-Cog-13 (Baseline was assigned the value of zero @ Week 0)” value ([1]; de novo patients, 0.3 mg daily dose, Week 18) was −0.4416, the “ADAS-Cog-13 (Baseline was assigned the value of zero @ Week 0)” value ([1]; de novo patients, 0.3 mg daily dose, Week 23) was −0.3226 and the “ADAS-Cog-13 (Baseline was assigned the value of zero @ Week 0)” value ([1]; de novo patients, 1 mg daily dose, Week 4) was −0.5942. The “ADAS-Cog-13 (Baseline was assigned the value of zero @ Week 0)” value ([1]; de novo patients, 1 mg daily dose, Week 12) was −2.311, the “ADAS-Cog-13 (Baseline was assigned the value of zero @ Week 0)” value ([1]; de novo patients, 1 mg daily dose, Week 18) was −1.2239 and the “ADAS-Cog-13 (Baseline was assigned the value of zero @ Week 0)” value ([1]; de novo patients, 1 mg daily dose, Week 23) was −1.4169. For the same compound, the “ADAS-Cog-13 (Baseline was assigned the value of zero @ Week 0)” value ([1]; de novo patients, 2 mg daily dose, Week 4) was 0.3542, the “ADAS-Cog-13 (Baseline was assigned the value of zero @ Week 0)” value ([1]; de novo patients, 2 mg daily dose, Week 12) was −1.9196 and the “ADAS-Cog-13 (Baseline was assigned the value of zero @ Week 0)” value ([1]; de novo patients, 2 mg daily dose, Week 18) was −1.5539. The “ADAS-Cog-13 (Baseline was assigned the value of zero @ Week 0)” value ([1]; de novo patients, 2 mg daily dose, Week 23) was −2.2283, the “Memory Composite Score (Baseline was assigned the value of zero @ Week 0)” value ([2]; 0.3 mg daily dose, Week 4) was −0.0084 and the “Memory Composite Score (Baseline was assigned the value of zero @ Week 0)” value ([2]; 0.3 mg daily dose, Week 12) was −0.0108. The “Memory Composite Score (Baseline was assigned the value of zero @ Week 0)” value ([2]; 0.3 mg daily dose, Week 18) was −0.0294, the “Memory Composite Score (Baseline was assigned the value of zero @ Week 0)” value ([2]; 0.3 mg daily dose, Week 23) was −0.0645 and the “Memory Composite Score (Baseline was assigned the value of zero @ Week 0)” value ([2]; 1 mg daily dose, Week 4) was −0.0062. The “Memory Composite Score (Baseline was assigned the value of zero @ Week 0)” value ([2]; 1 mg daily dose, Week 12) was 0.08, the “Memory Composite Score (Baseline was assigned the value of zero @ Week 0)” value ([2]; 1 mg daily dose, Week 18) was −0.0456 and the “Memory Composite Score (Baseline was assigned the value of zero @ Week 0)” value ([2]; 1 mg daily dose, Week 23) was 0.0113. The “Memory Composite Score (Baseline was assigned the value of zero @ Week 0)” value ([2]; 2 mg daily dose, Week 4) was −0.0032, the “Memory Composite Score (Baseline was assigned the value of zero @ Week 0)” value ([2]; 2 mg daily dose, Week 12) was 0.1021 and the “Memory Composite Score (Baseline was assigned the value of zero @ Week 0)” value ([2]; 2 mg daily dose, Week 18) was 0.117. For the same compound, the “Memory Composite Score (Baseline was assigned the value of zero @ Week 0)” value ([2]; 2 mg daily dose, Week 23) was 0.169, the “Memory composite score Effect Size” value ([2]; 2 mg versus placebo, over a 23 week period) was 0.37 and the “Executive Function Composite Score (Baseline was assigned the value of zero @ Week 0)” value ([3]; 0.3 mg daily dose, Week 4) was 0.0074. For the same compound, the “Executive Function Composite Score (Baseline was assigned the value of zero @ Week 0)” value ([3]; 0.3 mg daily dose, Week 12) was 0.0391, the “Executive Function Composite Score (Baseline was assigned the value of zero @ Week 0)” value ([3]; 0.3 mg daily dose, Week 18) was −0.0224 and the “Executive Function Composite Score (Baseline was assigned the value of zero @ Week 0)” value ([3]; 0.3 mg daily dose, Week 23) was −0.0153. The “Executive Function Composite Score (Baseline was assigned the value of zero @ Week 0)” value ([3]; 1 mg daily dose, Week 4) was 0.0202, the “Executive Function Composite Score (Baseline was assigned the value of zero @ Week 0)” value ([3]; 1 mg daily dose, Week 12) was 0.0609 and the “Executive Function Composite Score (Baseline was assigned the value of zero @ Week 0)” value ([3]; 1 mg daily dose, Week 18) was 0.0418. For the same compound, the “Executive Function Composite Score (Baseline was assigned the value of zero @ Week 0)” value ([3]; 1 mg daily dose, Week 23) was 0.0476, the “Executive function composite score Effect Size” value ([3]; 1 mg versus placebo) was 0.32 and the “Executive Function Composite Score (Baseline was assigned the value of zero @ Week 0)” value ([3]; 2 mg daily dose, Week 4) was −0.0311. For the same compound, the “Executive Function Composite Score (Baseline was assigned the value of zero @ Week 0)” value ([3]; 2 mg daily dose, Week 12) was −0.0452, the “Executive Function Composite Score (Baseline was assigned the value of zero @ Week 0)” value ([3]; 2 mg daily dose, Week 18) was 0.0188 and the “Executive Function Composite Score (Baseline was assigned the value of zero @ Week 0)” value ([3]; 2 mg daily dose, Week 23) was 0.0244. For the same compound, the “Executive function composite score Effect Size” value ([3]; 2 mg versus placebo) was 0.27.
